Measurements: patent publication US7173019B2, “Linked cyclitols and their polysulfated derivatives” (The Australian National University, priority 2001, dated 2007)
Like-named read-outs stand apart in the source and are kept apart here.

Columns and labels:
VEGF = molecular target: T1, VEGF (Homo sapiens, UniProt P15692); experiment: Biacore biosensor: inhibition of VEGF binding to immobilised heparin and heparan sulfate; details: inhibitor 0.034 μM, VEGF 0.025 μM
T1 sequence (P15692 27-191 isoform P15692-4): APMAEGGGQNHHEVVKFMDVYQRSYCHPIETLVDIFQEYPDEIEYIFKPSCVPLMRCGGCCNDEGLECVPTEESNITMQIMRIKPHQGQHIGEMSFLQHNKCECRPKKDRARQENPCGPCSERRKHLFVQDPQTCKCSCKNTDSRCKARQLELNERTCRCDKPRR
Experimental: (§1) Assays were performed using a Biacore™ 2000 optical biosensor obtained from Biacore AB, Uppsala, Sweden. The biosensor was operated in accordance with the manufacturer's instructions. Briefly, neutravidin was covalently coupled to the surface of CM5 chips of the biosensor and then either biotinylated heparin (1 μg/ml) or biotinylated heparan sulfate ([…]) bound to the immobilised neutravidin. Mixtures of a test compound and a growth factor or other effector compound were preincubated for 2 to 5 minutes and the mixtures then added to individual biosensor cuvettes. Binding of growth factor or effector compound to the heparin or heparan sulfate was then monitored for approximately 5 minutes with the biosensor.
(§2) The tabulated values are the IC50 in μM or % inhibition of binding of the growth factor to the immobilised heparan sulfate (HS) or heparin.

[1] = molecular target: T2, human platelet heparanase (Homo sapiens, UniProt Q9Y251); experiment: Heparanase inhibition, 3H-radiolabelled HS cleavage assay; assay type: biochemical; details: for inhibition: read-out: Relative inhibition (%); for EC50: heparanase inhibition; for inhibition at 10 µg/mL: read-out: Inhibition (%) at 10 μg/ml
T2 construct: 10 ng of purified human platelet heparanase; from tissue; host or cells: human platelets
T2 sequence (Q9Y251 158-543 limits assumed): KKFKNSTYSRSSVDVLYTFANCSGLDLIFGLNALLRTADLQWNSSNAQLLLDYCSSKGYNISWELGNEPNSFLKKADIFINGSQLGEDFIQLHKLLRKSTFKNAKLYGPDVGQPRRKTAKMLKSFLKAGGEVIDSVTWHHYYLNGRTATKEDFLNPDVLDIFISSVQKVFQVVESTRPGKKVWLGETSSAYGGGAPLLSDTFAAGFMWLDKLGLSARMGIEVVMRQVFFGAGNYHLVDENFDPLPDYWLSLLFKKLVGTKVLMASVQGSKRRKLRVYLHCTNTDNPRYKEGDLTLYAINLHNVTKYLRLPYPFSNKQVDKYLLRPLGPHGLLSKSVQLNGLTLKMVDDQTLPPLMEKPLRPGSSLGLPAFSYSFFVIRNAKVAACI
T2 sequence (Q9Y251 36-109 limits assumed): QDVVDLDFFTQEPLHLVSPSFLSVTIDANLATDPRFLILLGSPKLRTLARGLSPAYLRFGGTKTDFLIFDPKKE
Experimental: Briefly, to an incubation mixture of […] containing ^3H-radiolabelled porcine mucosal HS […], 50 mM-sodium acetate buffer, pH 5.0, […] bovine serum albumin and the inhibitor to be tested, was added 10 ng of purified human platelet heparanase and the mixture incubated for 30 min. The reaction was terminated by freezing the assay tubes. The substrate was separated from the cleavage products on minicolumns of sepharose-bound histidine-rich glycoprotein (Freeman, C., and Parish, C. R. [1997], supra).
Inhibitory activity is based on a comparison with heparin with 100% inhibition at 30 μg/ml. The compounds were also tested at the same purity as in Example 15.

[2] = molecular target: T3, human leukocyte Cathepsin G (Homo sapiens, UniProt P08311); experiment: Cathepsin G inhibition, fluorogenic substrate, 96 well assay; assay type: biochemical; details: human leukocyte cathepsin G 100 ng, 37° C., 60 min, pH 6.6; for IC50: read-out: Amount for 50% inhibition (converted)
T3 construct: human leukocyte Cathepsin G (100 ng protein); from tissue; host or cells: human leukocytes
T3 sequence (P08311 21-244): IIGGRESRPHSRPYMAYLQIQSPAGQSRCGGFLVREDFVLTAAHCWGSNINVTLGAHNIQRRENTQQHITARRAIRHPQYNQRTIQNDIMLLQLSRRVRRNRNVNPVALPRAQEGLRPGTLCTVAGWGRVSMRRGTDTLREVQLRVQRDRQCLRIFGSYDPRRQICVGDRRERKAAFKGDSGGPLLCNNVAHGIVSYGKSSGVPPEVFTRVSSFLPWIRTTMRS
Experimental: Cathepsin G activity was determined using a 96 well assay format in PVC microtitre U-bottom plates with activity determination by a fluorescence plate reader. Briefly, within a total incubation volume of 40 μl, human leukocyte Cathepsin G (100 ng protein) was added to a mixture of inhibitor and the fluorogenic substrate MeOSuc-ala-ala-pro-phe-AMAC in 50 mM-NaOAc buffer, pH 6.6 containing 50 mM NaCl and 0.1% (v/v) Brij 35. The mixture was incubated at 37° C. for 60 min, the reaction stopped by the addition of 40 μl of 250 mM acetic acid and the fluorescence determined with excitation at 360 nm and emitted light measured at 460 nm.
In this table, the linked cyclitol compound identifications are the same as those given in Section A above where the structures of the compounds are also given. With regard to the purity rating, a greater number of asterisks signifies a greater degree of purity with five asterisks signifying an essentially pure compound. The cathepsin G inhibition data are the concentrations of compounds required to inhibit the enzyme by 50%.

IL-8 = molecular target: T4, IL-8 (Homo sapiens, UniProt P10145); experiment: Biacore biosensor: inhibition of IL-8 binding to immobilised heparin and heparan sulfate; details: inhibitor 1.0 μM, IL-8 0.068 μM
T4 sequence (P10145 21-99): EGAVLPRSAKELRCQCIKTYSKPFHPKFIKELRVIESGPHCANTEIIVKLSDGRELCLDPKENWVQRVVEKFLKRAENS
Experimental: as §1

bFGF = bFGF (Homo sapiens, UniProt P09038); experiment: Biacore biosensor: inhibition of bFGF binding to immobilised heparin and heparan sulfate
Experimental: as §1, §2

aFGF = aFGF (Homo sapiens, UniProt P05230); experiment: Biacore biosensor: inhibition of aFGF binding to immobilised heparin and heparan sulfate; details: inhibitor 0.034 μM, aFGF 0.025 μM
Experimental: as §1, §2

[3] = immobilised heparan sulfate, read-out: Inhibition of binding of VEGF (HS)
[4] = immobilised heparin, read-out: Inhibition of binding of VEGF (Hep)
[5] = based on a comparison with heparin with 100% inhibition at 30 μg/ml
[6] = immobilised heparan sulfate, read-out: Inhibition of binding of IL-8 (HS)
[7] = immobilised heparin, read-out: Inhibition of binding of IL-8 (Hep)
[8] = immobilised heparan sulfate, inhibitor 0.034 μM, bFGF 0.034 μM, read-out: Inhibition of binding of bFGF (HS)
[9] = immobilised heparan sulfate, read-out: IC50, inhibition of bFGF binding (HS)
[10] = immobilised heparin, inhibitor 0.034 μM, bFGF 0.034 μM, read-out: Inhibition of binding of bFGF (Hep)
[11] = immobilised heparin, read-out: IC50, inhibition of bFGF binding (Hep)
[12] = immobilised heparan sulfate, read-out: Inhibition of binding of aFGF (HS)
[13] = immobilised heparin, read-out: Inhibition of binding of aFGF (Hep)

Chain of bFGF (P09038 134-288 limits assumed, species assumed): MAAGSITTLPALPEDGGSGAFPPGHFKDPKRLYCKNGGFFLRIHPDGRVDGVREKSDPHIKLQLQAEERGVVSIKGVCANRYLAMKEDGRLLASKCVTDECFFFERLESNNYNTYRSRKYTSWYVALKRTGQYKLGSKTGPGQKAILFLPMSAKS
Chain of aFGF (P05230 whole entry, species assumed): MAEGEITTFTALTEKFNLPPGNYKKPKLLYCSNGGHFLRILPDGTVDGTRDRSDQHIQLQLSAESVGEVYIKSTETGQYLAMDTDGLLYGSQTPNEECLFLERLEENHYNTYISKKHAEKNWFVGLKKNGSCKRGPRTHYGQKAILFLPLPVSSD

Row | inhibition at 0.034 µM (VEGF; [3]) | inhibition at 0.034 µM (VEGF; [4]) | inhibition [1, 5] | EC50 ([1]; read-out: EC50 (converted)) | inhibition at 10 µg/mL [1] | IC50 [2] | inhibition at 1 µM (IL-8; [6]) | inhibition at 1 µM (IL-8; [7]) | inhibition at 0.034 µM (bFGF; [8]) | IC50 (bFGF; [9]) | inhibition at 0.034 µM (bFGF; [10]) | IC50 (bFGF; [11]) | inhibition at 0.034 µM (aFGF; [12]) | inhibition at 0.034 µM (aFGF; [13]) | SMILES | other results
1 | 4% | 5% | 60% | 16.2 µM | 37% | 0.162 µM | 38% | 48% | 29% | 0.11 µM | 20% | > 0.25 µM | 73% | 74% | O=S(=O)(O)O[C@H]1[C@H](OS(=O)(=O)O)[C@@H](N(CCCN([C@H]2C=C[C@@H](OS(=O)(=O)O)[C@@H](OS(=O)(=O)O)[C@@H]2OS(=O)(=O)O)[C@H]2C=C[C@@H](OS(=O)(=O)O)[C@@H](OS(=O)(=O)O)[C@@H]2OS(=O)(=O)O)[C@H]2C=C[C@@H](OS(=O)(=O)O)[C@@H](OS(=O)(=O)O)[C@@H]2OS(=O)(=O)O)C=C[C@H]1OS(=O)(=O)O [Compound 4a] | –
2 | 53% | 62% | 45% | 25.5 µM | – | 0.158 µM | 77% | 76% | 43% | – | 34% | – | 21% | 26% | O=S(=O)(O)O[C@H]1[C@H](OS(=O)(=O)O)[C@@H](N(CCCCCCCCCCN([C@H]2C=C[C@@H](OS(=O)(=O)O)[C@@H](OS(=O)(=O)O)[C@@H]2OS(=O)(=O)O)[C@H]2C=C[C@@H](OS(=O)(=O)O)[C@@H](OS(=O)(=O)O)[C@@H]2OS(=O)(=O)O)[C@H]2C=C[C@@H](OS(=O)(=O)O)[C@@H](OS(=O)(=O)O)[C@@H]2OS(=O)(=O)O)C=C[C@H]1OS(=O)(=O)O [Compound 4c] | –
3 | 0% | 0% | 60% | 11.1 µM | 44% | 0.189 µM | 38% | 48% | 19% | 0.24 µM | 15% | > 0.25 µM | 68% | 65% | O=S(=O)(O)O[C@H]1[C@H](OS(=O)(=O)O)[C@@H](N(CCN([C@H]2C=C[C@@H](OS(=O)(=O)O)[C@@H](OS(=O)(=O)O)[C@@H]2OS(=O)(=O)O)[C@H]2C=C[C@@H](OS(=O)(=O)O)[C@@H](OS(=O)(=O)O)[C@@H]2OS(=O)(=O)O)[C@H]2C=C[C@@H](OS(=O)(=O)O)[C@@H](OS(=O)(=O)O)[C@@H]2OS(=O)(=O)O)C=C[C@H]1OS(=O)(=O)O [Compound 4f] | –
4 | 10% | 21% | 57% | 14.1 µM | 42% | 0.128 µM | 42% | 67% | 44% | – | 31% | > 0.25 µM | 43% | 44% | O=S(=O)(O)O[C@H]1[C@H](OS(=O)(=O)O)[C@@H](N(CCCCN([C@H]2C=C[C@@H](OS(=O)(=O)O)[C@@H](OS(=O)(=O)O)[C@@H]2OS(=O)(=O)O)[C@H]2C=C[C@@H](OS(=O)(=O)O)[C@@H](OS(=O)(=O)O)[C@@H]2OS(=O)(=O)O)[C@H]2C=C[C@@H](OS(=O)(=O)O)[C@@H](OS(=O)(=O)O)[C@@H]2OS(=O)(=O)O)C=C[C@H]1OS(=O)(=O)O [Compound 4g] | –
5 | – | – | – | 5.92 µM | – | 0.304 µM | – | – | – | 0.096 µM | – | > 0.25 µM | – | – | O=S(=O)(O)OC1C(OS(=O)(=O)O)C(OS(=O)(=O)O)C(N(CCCCCCN(C2C(OS(=O)(=O)O)C(OS(=O)(=O)O)C(OS(=O)(=O)O)C(OS(=O)(=O)O)C2OS(=O)(=O)O)C2C(OS(=O)(=O)O)C(OS(=O)(=O)O)C(OS(=O)(=O)O)C(OS(=O)(=O)O)C2OS(=O)(=O)O)C2C(OS(=O)(=O)O)C(OS(=O)(=O)O)C(OS(=O)(=O)O)C(OS(=O)(=O)O)C2OS(=O)(=O)O)C(OS(=O)(=O)O)C1OS(=O)(=O)O (stereo not drawn) [Compound 5b] | –
6 | – | – | – | 20.6 µM | – | 0.198 µM | – | – | – | > 0.25 µM | – | > 0.25 µM | – | – | O=S(=O)(O)OC1C(OS(=O)(=O)O)C(OS(=O)(=O)O)C(N(CCCCCCCCCCN(C2C(OS(=O)(=O)O)C(OS(=O)(=O)O)C(OS(=O)(=O)O)C(OS(=O)(=O)O)C2OS(=O)(=O)O)C2C(OS(=O)(=O)O)C(OS(=O)(=O)O)C(OS(=O)(=O)O)C(OS(=O)(=O)O)C2OS(=O)(=O)O)C2C(OS(=O)(=O)O)C(OS(=O)(=O)O)C(OS(=O)(=O)O)C(OS(=O)(=O)O)C2OS(=O)(=O)O)C(OS(=O)(=O)O)C1OS(=O)(=O)O (stereo not drawn) [Compound 5c] | heparanase inhibition, in words [1]: poor heparanase inhibitor
7 | – | – | – | – | – | – | – | – | – | 0.925 µM | – | > 1 µM | – | – | O=S(=O)(O)OC[C@H]1O[C@@](COS(=O)(=O)O)(O[C@H]2O[C@H](COS(=O)(=O)O)[C@@H](OS(=O)(=O)O)[C@H](OS(=O)(=O)O)[C@H]2OS(=O)(=O)O)[C@@H](OS(=O)(=O)O)[C@@H]1OS(=O)(=O)O [Sucrose octasulfate, reference compound] | Inhibition of binding of VEGF (HS) (VEGF; immobilised heparan sulfate): 0% (HS); Inhibition of binding of VEGF (Hep) (VEGF; immobilised heparin): 0% (Hep); Relative inhibition (%) [1, 5]: 0%; EC50 [1]: >30 µg/mL; Amount for 50% inhibition [2]: 4.30 µg/mL; Inhibition of binding of bFGF (HS) (bFGF; immobilised heparan sulfate, inhibitor 0.034 μM, bFGF 0.034 μM): 2.5% (HS); Inhibition of binding of bFGF (Hep) (bFGF; immobilised heparin, inhibitor 0.034 μM, bFGF 0.034 μM): 0% (Hep); Inhibition of binding of aFGF (HS) (aFGF; immobilised heparan sulfate): 0% (HS); Inhibition of binding of aFGF (Hep) (aFGF; immobilised heparin): 0% (Hep)
